# pKi: −log10 of the molar value.
# How the values were obtained:
# [1] = molecular target: human CB2 receptor (Homo sapiens (Human), UniProt P34972); assay: Radioligand binding assay ([3H]CP55,940 / [3H]WIN55,212-2), hCB2; conditions: HEK293 membranes expressing human CB2, NR = No Response
# Protocol: Preparation of Membranes: HEK293 cells stably expressing human CB2 receptor were collected, washed in ice cold PBS, and centrifuged at 48,000×g for 20 min at 4° C. The cell pellet was then collected, resuspended in wash buffer (20 mM HEPES, pH 7.4 and 1 mM EDTA), homogenized on ice using a Brinkman Polytron, and centrifuged at 48,000×g for 20 min at 4° C. The resultant pellet was resuspended in ice cold 20 mM HEPES, pH 7.4, homogenized again on ice, recentrifuged for 20 min at 4° C., and membrane pellets were then stored at −80° C. until needed.
# […] and [^3H]WIN55, 212-2 Radioligand Binding Assays: Radioligand binding assays for human CB2 receptors were performed using two different agonist radioligands, [^3H]CP55,940 and [^3H]WIN55, 212-2 and similar assay conditions. For both assays, nonspecific binding was determined in the presence of 10 μM unlabeled compound. […] Then, 25 μL of BetaScint scintillation cocktail was added to each well, and plates were read in a Packard TopCount scintillation counter.
# [2] = molecular target: hCB1 (Homo sapiens (Human), UniProt P21554); assay: Radioligand binding assay, hCB1; conditions: NR = No Response
# [3] = system: streptozotocin-induced painful diabetic peripheral neuropathy; assay: Streptozotocin-induced painful diabetic peripheral neuropathy (PDPN) model; format: in vivo, Sprague-Dawley rats; conditions: diabetic allodynic rats, 10 mg/kg orally in 0.5% methylcellulose, 1, 4 and 6 hours post-dosing, FIG. 17 and FIG. 18
# Protocol: Male Sprague-Dawley rats were injected intraperitoneally with 50 mg/kg of streptozotocin (STZ) in sodium citrate buffer. 10% sucrose water was provided ad libitum for the first 48 hours post-STZ followed by regular drinking water. Rats were monitored once weekly for blood glucose levels and body weights. Development of tactile allodynia over time was analyzed using Von Frey filaments and a 50% withdrawal threshold was determined using Dixon's up-down procedure. […] Tactile allodynia was evaluated at 1, 4 and 6 hours post-dosing.
# [4] = system: MIA model of osteoarthritis; assay: MIA model of osteoarthritis pain (von Frey, weight distribution, grip strength); format: in vivo, Sprague Dawley rats; conditions: MIA rats, 3, 10 and 30 mg/kg orally, one hour after dosing, FIG. 2
# Source text: Injection of monosodium iodoacetate (MIA) into a joint (Kalbhen, 1987) inhibits the activity of glyceraldehyde-3-phosphate dehydrogenase in chondrocytes, resulting in disruption of glycolysis and eventually in cell death. The progressive loss of chondrocytes results in histological and morphological changes of the articular cartilage, closely resembling those seen in osteoarthritis patients.
# The osteoarthritis was induced in 200 g male Sprague Dawley rats. […]
# Typically during disease progression, there was an inflammation period of 0-7 days post-intra-articular injection followed by progressive degeneration of the cartilage and subchondral bone from days 14-55. […] Tactile allodynia was measured via von Frey assay, hind limb paw weight distribution was monitored using an incapacitence tester (Columbus Instruments, Columbus, Ohio, USA) and hind limb grip strength was measured using a grip strength meter (Columbus Instruments, Columbus, Ohio, USA). […] Hind paw weight distribution was determined by placing rats in a chamber so that each hind paw rests on a separate force plate of the incapacitence tester. The force exerted by each hind limb (measured in grams) is averaged over a 3 second period. Three measurements were taken for each rat, and the change in hind paw weight distribution calculated. […]
# [5] = system: FCA-induced hyperalgesia model of inflammatory pain; assay: FCA-induced hyperalgesia in rats; format: in vivo, Sprague Dawley rats; conditions: FCA rats, 0.1, 1, 3, 10 and 30 mg/kg orally, 1 h post dosing, Analgesy-Meter, FIG. 1
# Protocol: Animal Info: Male Sprague Dawley rats from Harlan (200-225 g when received) were used. Upon arrival, rats were housed 4 per cage in shoe-box polycarbonate cages with wire tops, wood chip bedding and suspended food and water bottles Animals were acclimated for 5-7 days prior to being injected with Freund's complete adjuvant (FCA) (Sigma; catalog #5881).
# Experimental procedure: 2 days (48 h) before testing compounds, baseline readings of all rats were taken right before FCA injection. Rats were then injected with 50 μL FCA containing 1 mg/mL Mtb (Mycobacterium tuberculosis) in right hind footpad under inhalation anesthesia (isoflurane). 48 hours after FCA injection, readings were taken as pre-dosing baseline and then rats were dosed orally with 0.5 mL of vehicle or compound (0.5 mL per 250 g rat). Readings were taken again at 1 h post dosing. All readings were taken with an Analgesy-Meter (Ugo Basile) which measures mechanical hyperalgesia via paw pressure.
# Clinical scoring: FCA-induced hyperalgesia was tested with an Analgesy-Meter. Briefly, the Analgesy Meter applied an increasing pressure to the right hind paw. The paw withdrawal threshold was the pressure leading to withdrawal.
# Meanwhile a group of rats were dosed orally with 50 mg/kg of Diclofenac as a positive control. Readings were taken again at 1 h post dosing. Dosing volume was 500 μL per 250 g rat.
# [6] = system: paclitaxel-induced allodynia; assay: Paclitaxel-induced allodynia in Sprague Dawley rats; format: in vivo; conditions: 10 mg/kg orally, FIG. 3
# Protocol: Animals: Male Sprague Dawley rats [200-250 g] (Harlan Laboratories Inc., Livermore, Calif.) were housed three per cage and maintained in a humidity-controlled (40-60%) and temperature-controlled (68-72° F.) facility on a 12 h:12 h light/dark cycle (lights on at 6:30 am) with free access to food (Harlan Teklad, Orange, Calif., Rodent Diet 8604) and water. Rats were allowed one week of habituation to the animal facility before starting treatment.
# Induction of Allodynia: Rats were treated intraperitoneally, with 2 mg/kg of paclitaxel (Sigma Aldrich, Saint Louis, Mo.) in 10% Cremophor vehicle (500 μL) on days 0, 2, 4, and 6.
# Clinical scoring: Tactile allodynia was tested using von Frey filaments. Briefly, the von Frey assay was performed using the standardized up down method with von Frey filaments, that determine the tactile sensitivity of the paw. By applying the increasingly or decreasingly thicker filaments to the paw in a logarithmic scale of actual force, a linear scale of perceived intensity is determined
# Drug treatment: Eight days after the start of paclitaxel dosing, a baseline measurement (von Frey assay) was performed prior to dosing of compounds. […] As a positive control, rats were dosed intraperitoneally with 100 mg/kg gabapentin in water. The dosing volume for oral and peritoneal treatment was 500 μL. […]
compound,measurement,setting,value
CONC(=O)[C@@H](NC(=O)c1nn(-c2c[n+]([O-])ccn2)c2c1C[C@H]1C[C@@H]21)C(C)(C)C [Compound 755],pKi,[1],8.42
same,pKi,[2],5.92
"CC(C)(C)[C@@H](CO)NC(=O)c1nn(-c2c[n+]([O-])ccn2)c2c1C[C@@H]1C[C@H]21 [Compound 699, (1aS,5aS)-2-(4-Oxy-pyrazin-2-yl)-1a,2,5,5a-tetrahydro-1H-2,3-diaza-cyclopropa[a]pentalene-4-carboxylic Acid ((S)-1-Hydroxymethyl-2,2-dimethyl-propyl)-amide]","analgesic efficacy (tactile allodynia, 50% withdrawal threshold)",[3],robust and sustained analgesic efficacy over 6 hours
"CC(C)(NC(=O)c1nn(-c2c[n+]([O-])ccn2)c2c1C[C@@H]1C[C@H]21)C(F)(F)F [Compound 919, (1aS,5aS)-2-(4-Oxy-pyrazin-2-yl)-1a,2,5,5a-tetrahydro-1H-2,3-diaza-cyclopropa[a]pentalene-4-carboxylic acid (2,2,2-trifluoro-1,1-dimethyl-ethyl)-amide]","analgesic efficacy (tactile allodynia, 50% withdrawal threshold)",[3],robust and sustained analgesic efficacy over 6 hours
CNC(=O)[C@@H](NC(=O)c1nn(-c2c[n+]([O-])ccn2)c2c1C[C@@H]1C[C@H]21)C(C)(C)C [Compound 701],pKi,[2],6.98
"CC(C)(CO)NC(=O)c1nn(-c2ccc(F)cc2F)c2c1C[C@H]1C[C@@H]21 [Compound 493, (1aR,5aR)-2-(2,4-Difluoro-phenyl)-1a,2,5,5a-tetrahydro-1H-2,3-diaza-cyclopropa[a]pentalene-4-carboxylic Acid (2-Hydroxy-1,1-dimethyl-ethyl)-amide]","paw withdrawal threshold (PWT) in comparison with vehicle, therapeutic efficacy",[4],Increase in paw withdrawal threshold (PWT)
same,"paw withdrawal threshold (PWT) in comparison with vehicle, therapeutic efficacy",[5],increase in paw withdrawal threshold (PWT)
same,time of maximum efficacy post-dosing,[6]; time course,1 h
same,"paw withdrawal threshold (PWT) in comparison with vehicle and gabapentin, therapeutic efficacy","[6]; von Frey 30, 60 and 180 minutes after dosing",increase in paw withdrawal threshold (PWT)
